Test results reported in PMC8847695 (Frontiers in Chemistry, 2022).

Assays:
Assay type in all cases: binding
Conditions in all cases: 1 = hit, 0 = no hit
DOT1L (1-416) = biological target: T1, DOT1L (1-416) (Homo sapiens, UniProt Q8TEK3); experiment: STD-NMR fragment screening, DOT1L
T1 construct: made in house; host or cells: E. coli BL21 (DE3) pLysS
In short: (§1)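 Saturation-transfer difference NMR was run at 25°C and 700 MHz with 20 µM protein, two fragments at 1 mM each, and 10% DMSO-d6. On-resonance saturation was at 0.5–0.6 ppm and off-resonance at 40 ppm, with a 3 s Gaussian-pulse train. A hit required a difference-spectrum peak at least three times the local noise.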

CAMK1G (1-320) = biological target: T2, CAMK1G (1-320) (Homo sapiens, UniProt Q96NX5); experiment: STD-NMR fragment screening, CAMK1G
T2 construct: made in house; host or cells: E. coli BL21 (DE3) pLysS
In short: as §1

IDO1 (1-435) = biological target: T3, IDO1 (1-435) (Homo sapiens, UniProt P14902); experiment: STD-NMR fragment screening, IDO1
T3 construct: His-tag of pET15b with TEV site (thrombin site replaced) (cleaved yes); made in house; host or cells: E. coli Rosetta 2 (DE3) pLysS
In short: as §1

AAK1 (121-471) = AAK1 (121-471) (Homo sapiens, UniProt Q2M2I8); experiment: STD-NMR fragment screening, AAK1
In short: as §1

Sequence of AAK1 (121-471) (Q2M2I8 46-315 limits assumed): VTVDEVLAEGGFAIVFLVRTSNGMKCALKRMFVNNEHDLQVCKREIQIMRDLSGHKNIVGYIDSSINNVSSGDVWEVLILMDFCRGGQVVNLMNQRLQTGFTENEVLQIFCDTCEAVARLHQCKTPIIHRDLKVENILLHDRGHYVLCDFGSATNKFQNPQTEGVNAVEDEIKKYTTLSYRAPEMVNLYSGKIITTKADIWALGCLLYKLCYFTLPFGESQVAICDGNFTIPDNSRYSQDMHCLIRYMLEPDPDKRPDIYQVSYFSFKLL
T3 sequence (P14902 whole entry, the tested form may be a part): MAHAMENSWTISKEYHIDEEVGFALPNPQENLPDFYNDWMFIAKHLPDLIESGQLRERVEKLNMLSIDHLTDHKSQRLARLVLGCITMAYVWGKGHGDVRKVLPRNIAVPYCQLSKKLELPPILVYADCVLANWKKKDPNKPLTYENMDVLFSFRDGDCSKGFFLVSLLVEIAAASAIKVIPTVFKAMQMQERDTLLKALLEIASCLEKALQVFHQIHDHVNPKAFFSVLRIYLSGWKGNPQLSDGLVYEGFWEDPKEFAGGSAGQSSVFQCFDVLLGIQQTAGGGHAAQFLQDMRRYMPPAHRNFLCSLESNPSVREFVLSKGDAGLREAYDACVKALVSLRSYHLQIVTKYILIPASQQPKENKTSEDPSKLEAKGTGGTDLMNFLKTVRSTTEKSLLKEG
T1 sequence (Q8TEK3 1-416): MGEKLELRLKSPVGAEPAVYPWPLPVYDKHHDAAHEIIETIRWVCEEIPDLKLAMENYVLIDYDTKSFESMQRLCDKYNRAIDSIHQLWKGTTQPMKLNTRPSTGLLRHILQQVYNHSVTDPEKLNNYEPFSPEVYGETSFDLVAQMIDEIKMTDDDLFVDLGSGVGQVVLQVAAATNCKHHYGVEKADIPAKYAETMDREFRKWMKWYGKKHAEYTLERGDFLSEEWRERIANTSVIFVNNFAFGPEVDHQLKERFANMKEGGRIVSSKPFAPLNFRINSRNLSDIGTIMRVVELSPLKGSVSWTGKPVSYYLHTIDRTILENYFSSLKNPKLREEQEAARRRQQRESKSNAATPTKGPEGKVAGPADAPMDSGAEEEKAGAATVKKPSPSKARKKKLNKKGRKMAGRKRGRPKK
T2 sequence (Q96NX5 1-320): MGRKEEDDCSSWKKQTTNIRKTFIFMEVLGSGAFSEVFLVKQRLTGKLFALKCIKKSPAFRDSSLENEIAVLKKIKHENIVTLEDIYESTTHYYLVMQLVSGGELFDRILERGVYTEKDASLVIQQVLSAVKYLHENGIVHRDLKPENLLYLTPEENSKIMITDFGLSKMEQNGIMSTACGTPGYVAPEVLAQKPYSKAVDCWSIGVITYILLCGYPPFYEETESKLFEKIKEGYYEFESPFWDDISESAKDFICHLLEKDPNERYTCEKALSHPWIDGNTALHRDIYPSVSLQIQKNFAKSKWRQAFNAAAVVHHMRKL

Row | SMILES | DOT1L (STD-NMR hit flag) (DOT1L (1-416)) | CAMK1G (STD-NMR hit flag) (CAMK1G (1-320)) | IDO1 (STD-NMR hit flag) (IDO1 (1-435)) | AAK1 (STD-NMR hit flag) (AAK1 (121-471))
1 | Nc1ccc(Br)cn1 [Fragment B02291232] | 0 | 0 | 0 | 1
2 | Cn1c(Cl)c(C#N)c(=O)n(C)c1=O [Fragment B02291234] | 1 | 1 | 1 | 1
3 | O=S(=O)(c1ccc(Cl)s1)N1CCNCC1 [Fragment B02291236] | 0 | 0 | 0 | 0
4 | Nc1ncc(F)cc1I [Fragment B02291238] | 0 | 0 | 0 | 0
5 | Clc1cnccn1 [Fragment B02291240] | 0 | 0 | 0 | 0
6 | Clc1ccc(CN2CCNCC2)s1 [Fragment B02291241] | 0 | 0 | 0 | 0
7 | NCc1cc(Cl)c2c(c1)OCCCO2 [Fragment B02291242] | 0 | 0 | 0 | 0
8 | O=C(O)c1ccc(Br)cn1 [Fragment B02291245] | 0 | 0 | 0 | 0
9 | O=c1[nH]cc(Br)c(=O)[nH]1 [Fragment B02291248] | 0 | 1 | 0 | 1
10 | O=C1CCS(=O)(=O)c2ccc(Cl)cc21 [Fragment B02291253] | 0 | 1 | 0 | 0
11 | O=C1Nc2cccc(Cl)c2C1=O [Fragment B02291255] | 0 | 0 | 0 | 0
12 | O=C(O)c1cncc(Br)c1 [Fragment B02291261] | 1 | 0 | 0 | 1
13 | Fc1ncccc1I [Fragment B02291262] | 0 | 0 | 0 | 0
14 | NS(=O)(=O)c1cc(C(=O)O)ccc1Cl [Fragment B02291263] | 0 | 0 | 0 | 0
15 | O=C(O)c1cc(Br)c[nH]1 [Fragment B02291264] | 0 | 0 | 0 | 0
16 | Cn1c2nc(Br)nc-2c(O)n(C)c1=O [Fragment B02291266] | 0 | 1 | 1 | 1
17 | Clc1ccncc1 [Fragment B02291269] | 0 | 0 | 0 | 0
18 | CCC(N)c1ccc(Cl)cc1 (stereo not shown) [Fragment B02291270] | 1 | 1 | 1 | 1
19 | Brc1noc(C2CC2)n1 [Fragment B02291272] | 0 | 0 | 0 | 0
20 | CNc1cc(Cl)c2c(c1)OCO2 [Fragment B02294481] | 0 | 0 | 0 | 0
21 | FC(F)(F)c1cnc(Cl)nc1 [Fragment B02294482] | 0 | 0 | 0 | 0
22 | Cc1n[nH]c(C(=O)O)c1Br [Fragment B02294483] | 0 | 0 | 0 | 1
23 | Oc1ccc(Cl)cc1 [Fragment B02294485] | 0 | 0 | 0 | 0

More lines, now with the values ahead:

Row | DOT1L (STD-NMR hit flag) (DOT1L (1-416)) | CAMK1G (STD-NMR hit flag) (CAMK1G (1-320)) | IDO1 (STD-NMR hit flag) (IDO1 (1-435)) | AAK1 (STD-NMR hit flag) (AAK1 (121-471)) | SMILES
24 | 0 | 0 | 0 | 0 | O=C(O)c1csc(Cl)n1 [Fragment B02291228]
25 | 0 | 0 | 0 | 0 | Clc1cccc2nnnn12 [Fragment B02291229]
26 | 0 | 1 | 0 | 1 | Nc1c(Cl)ncnc1NC1CC1 [Fragment B02291230]
27 | 0 | 0 | 0 | 1 | OCc1c(Cl)nc2sccn12 [Fragment B02291233]
28 | 0 | 1 | 0 | 0 | OCc1cc2c(cc1Cl)OCO2 [Fragment B02291235]
29 | 0 | 0 | 0 | 0 | CC(C)c1nsc(Cl)n1 [Fragment B02291237]
30 | 0 | 0 | 0 | 0 | O=C(O)c1ccnc(Cl)c1 [Fragment B02291239]
31 | 0 | 1 | 1 | 0 | Cc1nn(CC(=O)O)c(C)c1Cl [Fragment B02291243]
32 | 0 | 0 | 0 | 0 | Nc1cc(Cl)cc([N+](=O)[O-])c1O [Fragment B02291244]
33 | 0 | 0 | 1 | 1 | COc1cc(OC)nc(Cl)n1 [Fragment B02291246]
34 | 0 | 0 | 0 | 0 | O=C(O)C(O)c1ccccc1Cl (stereo not shown) [Fragment B02291247]
35 | 0 | 0 | 0 | 0 | O=C(O)Cc1ccc(Cl)nc1 [Fragment B02291249]
36 | 0 | 1 | 0 | 0 | Cc1nn(CCO)c(N)c1I [Fragment B02291250]
37 | 0 | 0 | 0 | 0 | O=C(O)c1cnc(Cl)cn1 [Fragment B02291251]
38 | 0 | 0 | 0 | 1 | Cn1nc(Br)c(C(=O)NCC(=O)O)c1N [Fragment B02291252]
39 | 0 | 1 | 1 | 1 | Clc1ncnc2[nH]ccc12 [Fragment B02291254]
40 | 0 | 1 | 0 | 1 | Clc1cncc(-n2cccn2)n1 [Fragment B02291256]
41 | 0 | 0 | 0 | 1 | N#Cc1ccc(O)c(Cl)c1 [Fragment B02291257]
42 | 0 | 0 | 0 | 0 | O=C(O)c1cccnc1Cl [Fragment B02291258]
43 | 0 | 0 | 0 | 0 | Nc1ccc(C(=O)O)c(Cl)c1 [Fragment B02291259]
44 | 0 | 0 | 0 | 0 | Nc1ccc(Cl)c(C(=O)O)c1 [Fragment B02291260]
45 | 0 | 1 | 0 | 1 | Clc1n[nH]c2ccccc12 [Fragment B02291265]
46 | 0 | 0 | 0 | 0 | Clc1cnc(Cl)nc1 [Fragment B02291267]
47 | 0 | 0 | 0 | 0 | N#Cc1ccnc(Cl)c1 [Fragment B02291271]
48 | 0 | 1 | 1 | 1 | Clc1cnc2ccccn12 [Fragment B02294486]
49 | 0 | 1 | 1 | 1 | COc1cc(Cl)cnc1OC [Fragment B02297394]
